Measurements from ChEMBL document CHEMBL1201862, “PubChem BioAssay data set” (2004).
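48-hour exposure; five concentrations; linearly interpolated endpoints. GI50 = concentration required for 50% inhibition of growth.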 Calls of active or inactive are those of the source. Rule as the data show it: active = GI50 up to about 1.1 µM and inactive = higher.

Experiments:
Experiment in all cases: DTP human tumour cell line panel, 48 h
[1] = test system: LOX IMVI
[2] = test system: NCI-H460
[3] = test system: UACC-62
[4] = test system: CAKI-1
[5] = test system: IGROV-1
[6] = test system: SNB-19
[7] = test system: RXF 393
[8] = test system: UO-31
[9] = test system: COLO 205
[10] = test system: HOP-92
[11] = test system: HT-29
[12] = test system: MCF7
[13] = test system: SK-MEL-2
[14] = test system: HCT-116
[15] = test system: SF-295
[16] = test system: RPMI-8226
[17] = test system: SF-268
[18] = test system: SK-MEL-5
[19] = test system: SN12C
[20] = test system: K562

Measured: GI50

COc1cc(/C=C/c2ccc(OC)c(OC)c2)oc(=O)c1
inactive: [1] > 250 µM | [2] > 230 µM | [3] 247 µM | [4] > 92.3 µM | [5] > 220 µM | [6] > 218 µM | [7] 57 µM | [8] > 250 µM | [9] > 250 µM | [10] 122 µM | [11] > 250 µM | [12] > 250 µM | [13] > 213 µM | [14] > 250 µM | [15] 162 µM | [16] > 250 µM | [17] > 170 µM | [18] > 250 µM | [19] > 250 µM | [20] > 250 µM

CCOC(=O)C1=C(C)N2CCCOC2(C)C(C(=O)OC)C1c1cccc([N+](=O)[O-])c1 (stereo unspecified)
inactive: [2] 57.4 µM | [3] 45.6 µM | [4] 64.9 µM | [5] > 100 µM | [6] > 100 µM | [7] > 100 µM | [8] 51.6 µM | [9] > 100 µM | [10] > 100 µM | [11] > 100 µM | [13] > 100 µM | [14] 49.7 µM | [15] 45.2 µM | [16] 35 µM | [17] > 100 µM | [18] 39.6 µM | [20] 55.2 µM

CCOC(=O)c1ccc(C)c(/N=N/N(C)C)c1
inactive: [1] > 100 µM | [2] > 100 µM | [3] > 100 µM | [4] > 100 µM | [5] > 100 µM | [6] 86.7 µM | [7] > 100 µM | [8] 79.8 µM | [9] > 100 µM | [10] > 100 µM | [11] > 100 µM | [13] > 100 µM | [14] > 100 µM | [15] > 100 µM | [16] > 100 µM | [17] 82.8 µM | [18] > 100 µM | [19] > 100 µM | [20] > 100 µM

CCCCNS(=O)(=O)c1n[nH]c(=O)[nH]c1=O
inactive: [1] > 100 µM | [2] > 100 µM | [3] > 100 µM | [4] > 100 µM | [5] > 100 µM | [6] > 100 µM | [7] > 100 µM | [8] > 100 µM | [9] > 100 µM | [11] > 100 µM | [12] > 100 µM | [13] > 100 µM | [14] > 100 µM | [15] 16.9 µM | [16] > 100 µM | [17] > 100 µM | [18] > 100 µM | [19] > 100 µM | [20] > 100 µM

CC1Cc2cc(O)c(O)cc2-c2cc(O)c(O)cc2CC1C (stereo unspecified)
inactive: [1] 10.2 µM | [2] 20.4 µM | [3] 6.07 µM | [4] 17.8 µM | [5] 20.4 µM | [6] 26.5 µM | [7] 18.1 µM | [8] 25.3 µM | [9] 17.8 µM | [10] 15.3 µM | [11] 24 µM | [12] 12.1 µM | [13] 4.32 µM | [14] 17.9 µM | [15] 4.41 µM | [16] 32.4 µM | [17] 25.9 µM | [18] 4.81 µM | [19] 20.9 µM | [20] 12.8 µM

COc1ccc(CN/C=N/C(C#N)=C(\N)C#N)cc1OC
inactive: [1] > 100 µM | [2] > 100 µM | [3] > 100 µM | [4] > 100 µM | [5] > 100 µM | [6] > 100 µM | [8] 65 µM | [9] > 100 µM | [11] > 100 µM | [12] > 100 µM | [13] > 100 µM | [14] > 100 µM | [15] > 100 µM | [16] > 100 µM | [17] > 100 µM | [18] > 100 µM | [19] > 100 µM | [20] > 100 µM

CCOC(=O)Cn1c(=O)c(C)cn(COCCO)c1=O
inactive: [1] > 100 µM | [2] > 100 µM | [4] > 100 µM | [5] > 100 µM | [6] > 100 µM | [7] > 100 µM | [8] > 100 µM | [9] > 100 µM | [10] > 100 µM | [11] > 100 µM | [12] > 100 µM | [13] > 100 µM | [16] > 100 µM | [17] > 100 µM | [18] > 100 µM | [19] > 100 µM | [20] > 100 µM

Cc1ccc(S(=O)(=O)NC(=N)N(C)N=O)cc1
inactive: [1] > 100 µM | [2] 18.9 µM | [3] 26.4 µM | [4] > 100 µM | [5] > 100 µM | [6] > 100 µM | [7] > 100 µM | [8] > 100 µM | [9] 28.1 µM | [10] 84.1 µM | [11] > 100 µM | [12] > 100 µM | [13] > 100 µM | [14] > 100 µM | [15] > 100 µM | [16] > 100 µM | [17] > 100 µM | [19] > 100 µM | [20] > 100 µM

Cc1cccc2ns[s+]c12
inactive: [2] 23 µM | [3] 38.5 µM | [4] > 100 µM | [5] > 100 µM | [6] 66.8 µM | [8] 53 µM | [9] > 100 µM | [10] > 100 µM | [11] 43.1 µM | [14] 20 µM | [15] > 100 µM | [16] 99.5 µM | [17] 82 µM | [18] 89.7 µM | [19] > 100 µM | [20] 29.9 µM

C[n+]1c2ccccc2c(NC(CS)C(=O)O)c2ccccc21 (stereo unspecified)
inactive: [2] 29.8 µM | [3] 15.2 µM | [4] 28.5 µM | [5] 25.4 µM | [6] 40.6 µM | [7] 22.3 µM | [8] 16.2 µM | [9] 30.1 µM | [10] 20.2 µM | [11] 28.9 µM | [13] 28.2 µM | [14] 13.5 µM | [15] 19.9 µM | [16] 18.6 µM | [17] 19.8 µM | [18] 17.3 µM | [19] 52 µM | [20] 28.6 µM

Cc1ccc(NC(Nc2ccc(C)cc2C)=C(C(Cl)=C(Cl)Cl)[N+](=O)[O-])c(C)c1
inactive: [1] 5.83 µM | [2] 13.9 µM | [3] 14.2 µM | [4] 20.6 µM | [5] 14.1 µM | [6] 16.2 µM | [7] 15.2 µM | [8] 13.7 µM | [9] 17.5 µM | [10] 12.4 µM | [11] 17.5 µM | [12] 38.7 µM | [14] 13.7 µM | [16] 19.2 µM | [17] 17.3 µM | [18] 4.63 µM | [19] 14.7 µM | [20] 9.53 µM
